According to US7709482B2, “Polycyclic heteroaryl substituted triazoles useful as Axl inhibitors” (Rigel Pharmaceuticals, Inc., priority 2006, dated 2010):

biological target: T1, Axl (Homo sapiens, UniProt P30530); test: Phospho-Akt In-Cell Western Assay (inhibition of Axl activity after Axl-antibody cross-linking); assay type: cell-based; conditions: Hela cells, phospho-Akt chemiluminescence normalized to relative cell number; compounds of formula (Ia), Table 1; read-out: IC50
T1 construct: endogenous in cells; host or cells: HeLa cells
T1 sequence (P30530 26-894): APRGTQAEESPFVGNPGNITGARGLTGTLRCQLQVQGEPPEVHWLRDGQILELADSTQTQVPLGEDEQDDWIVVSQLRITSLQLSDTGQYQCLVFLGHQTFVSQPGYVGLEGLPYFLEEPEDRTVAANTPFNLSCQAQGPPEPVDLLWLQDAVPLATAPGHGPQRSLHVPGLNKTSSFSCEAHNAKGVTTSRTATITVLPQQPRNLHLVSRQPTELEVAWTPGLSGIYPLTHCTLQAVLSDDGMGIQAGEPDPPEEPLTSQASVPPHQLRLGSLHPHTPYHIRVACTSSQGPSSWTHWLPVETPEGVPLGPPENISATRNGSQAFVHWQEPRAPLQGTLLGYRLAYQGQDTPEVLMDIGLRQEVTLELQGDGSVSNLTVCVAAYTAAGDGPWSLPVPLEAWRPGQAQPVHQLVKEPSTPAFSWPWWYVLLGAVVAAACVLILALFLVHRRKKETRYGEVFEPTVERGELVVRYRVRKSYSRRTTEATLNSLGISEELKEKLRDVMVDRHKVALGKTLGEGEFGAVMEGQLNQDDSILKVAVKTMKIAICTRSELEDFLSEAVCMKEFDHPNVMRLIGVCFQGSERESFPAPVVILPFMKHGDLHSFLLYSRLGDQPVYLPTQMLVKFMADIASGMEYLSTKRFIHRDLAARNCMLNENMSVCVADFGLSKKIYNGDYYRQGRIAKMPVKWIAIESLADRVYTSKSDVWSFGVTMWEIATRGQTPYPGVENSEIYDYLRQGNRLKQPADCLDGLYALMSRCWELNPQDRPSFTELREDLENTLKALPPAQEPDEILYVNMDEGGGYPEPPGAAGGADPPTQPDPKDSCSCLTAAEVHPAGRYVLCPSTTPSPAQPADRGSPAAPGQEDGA
Experimental: The compounds of the invention were tested in the following assay for their ability to inhibit Axl activity.
Phospho-Akt In-Cell Western Assay
• Cell culture plate: 96 well assay plate (Corning 3610), white, clear bottom, tissue-culture treated. • Cells: Hela cells. • Starvation medium: For Axl stimulation: 0.5% FCS (fetal calf serum) in DMEM, plus Axl/Fc (extracellular domain of AXL fused to immunoglobulin Fc region) (R&D, 154-AL) 500 ng/mL. • For EGF (epidermal growth factor) stimulation: 0.5% FCS in DMEM (Dulbecco's modified Eagles medium). • Poly-L-Lysine 0.01% solution (the working solution): […], dilute In PBS (phosphate buffered saline). • Axl antibody cross-linking: • 1st: Mouse anti-Axl (R&D, MAB154). • 2nd: Biotin-SP-conjugated AffiniPure goat anti-mouse IgG (H+ L) (Jackson ImmunoResearch #115-065-003). • Fixing buffer: 4% formaldehyde in PBS. • Wash buffer: 0.1% TritonX-100 in PBS. • Quenching buffer: 3% H2O2, 0.1% Azide in wash buffer, Azide and hydrogen peroxide (H2O2) are added fresh. • Blocking buffer: 5% BSA in TBST (tris buffered saline plus 0.1% Tween 20). • Primary antibody: Rabbit anti-human Phospho-Akt antibody (Cell Signaling 9271): 1×250 diluted in blocking buffer. • Secondary antibody: HRP (horse radish peroxidase)-conjugated Goat anti-Rabbit secondary, stock solution: Jackson ImmunoResearch (Goat anti-Rabbit HRP, #111-035-144) 1:1 diluted in glycerol, store at −20° C. The working solution: 1×2000 dilution of stock in blocking buffer. • Chemiluminescent working solution (Pierce, 37030): SuperSignal ELISA (enzyme linked immunosorbant assay) Pico Chemiluminescent substrate. • Crystal Violet solution: Stock: 2.5% Crystal violet in methanol, filtered and kept at ambient temperature. The working solution: dilute the stock 1:20 with PBS immediately before use. • 10% SDS: working solution: 5% SDS (sodium dodecylsulfate), diluted in PBS Methods: Day 1:
A 96 well TC (tissue culture treated) plate was coated with 10 μg/mL poly-L-Lysine at 37° C. for 30 min, washed twice with PBS, and air-dried for 5 minutes before cells were added. Hela cells were seeded at 10,000 cells/well and the cells were starved in 100 μL starvation medium containing Axl/Fc for 24 hrs.
The cells were pre-treated with test compounds by adding 100 μL of 2× test compound to the starvation medium on the cells. The cells were incubated at 37° C. for 1 hr before stimulation.
The resulting mix was warmed to 37° C. 50 μL of 5×Axl 1st/2nd of antibody cluster was added to the cells and the cells were incubated at 37° C. for 5 min.
After 5 minutes stimulation, the plate was flicked to remove medium and the plate was tapped onto paper towels. Formaldehyde (4.0% in PBS, 100 μL) was added to fix the cells and the cells were incubated at ambient temperature for 20 min without shaking.
The cells were washed with a plate washer buffer to remove the formaldehyde solution. The plate was flicked to removed excess wash buffer and tapped onto paper towels. Quenching buffer (100 μL) was added to each well and the cells were incubated at ambient temperature for 20 minutes without shaking.
The cells were washed with a plate washer buffer to remove the quenching buffer. Blocking buffer (100 μL) was added and the cells were incubated at ambient temperature for at least an hour with gentle shaking.
The cells were washed with a plate washer buffer and diluted primary antibody (50 μL) was added to each well (blocking buffer was added to the negative control wells instead). The plates were incubated overnight at 4° C. with gentle shaking.
The wash buffer was removed, diluted secondary antibody (100 μL) was added, and the cells were incubated at ambient temperature for 1 hour with gentle shaking. During the incubation, the chemiluminescent reagent was brought to ambient temperature.
The secondary antibody was removed by washing the cells 1× with wash buffer, 1× with PBS by plate washer.

Row | IC50 | SMILES
1 | < 1000 nM | N#Cc1cc(Nc2nc(N)n(-c3cc4c(nn3)-c3ccccc3CCC4)n2)ccc1N1CCC(N2CCCC2)CC1 [Compound 18, 1-(6,7-dihydro-5H-benzo[6,7]cyclohepta[1,2-c]pyridazin-3-yl)-N^3-(4-(4-(pyrrolidin-1-yl)piperidin-1-yl)-3-cyanophenyl)-1H-1,2,4-triazole-3,5-diamine]
2 | < 1000 nM | CN(C)CCN1CCOc2cc(Nc3nc(N)n(-c4cc5c(nn4)-c4ccccc4CCC5)n3)ccc21 [Compound 121, 1-(6,7-dihydro-5H-benzo[6,7]cyclohepta[1,2-c]pyridazin-3-yl)-N^3-(4-(2-dimethylaminoethyl)-(3,4-dihydro-2H-benzo[b][1,4]oxazin-7-yl))-1H-1,2,4-triazole-3,5-diamine]
3 | < 1000 nM | Nc1nc(Nc2ccc(N3CCC(N4CCCC4)CC3)c(F)c2)nn1-c1cc2c(nn1)-c1cc(F)ccc1CCC2 [Compound 53, 1-(6,7-dihydro-5H-10-fluorobenzo[6,7]cyclo-hepta[1,2-c]pyridazin-3-yl)-N^3-(3-fluoro-4-(4-(pyrrolidin-1-yl)piperidin-1-yl)phenyl)-1H-1,2,4-triazole-3,5-diamine]
4 | < 1000 nM | Nc1nc(Nc2ccc(C(=O)N3CCC(N4CCCC4)CC3)cc2)nn1-c1cc2c(nn1)-c1ccccc1CCC2 [Compound 22, 1-(6,7-dihydro-5H-benzo[6,7]cyclohepta[1,2-c]pyridazin-3-yl)-N^3-(4-((4-(pyrrolidin-1-yl)piperidin-1-yl)carbonyl)phenyl)-1H-1,2,4-triazole-3,5-diamine]
5 | < 1000 nM | CN(CCOc1ccc(Nc2nc(N)n(-c3cc4c(nn3)-c3ccccc3CCC4)n2)cc1)C1CCCC1 [Compound 60, 1-(6,7-dihydro-5H-benzo[6,7]cyclohepta[1,2-c]pyridazin-3-yl)-N^3-(4-(2-(N-methylcyclopentylamino)-ethoxy)phenyl)-1H-1,2,4-triazole-3,5-diamine]
6 | > 20000 nM | Nc1cccc(-c2ccc(Nc3nc(N)n(-c4cc5c(nn4)-c4ccccc4CCC5)n3)cn2)c1 [Compound 95, 1-(6,7-dihydro-5H-benzo[6,7]cyclohepta[1,2-c]pyridazin-3-yl)-N^3-(6-(3-aminophenyl)pyridine-3-yl)-1H-1,2,4-triazole-3,5-diamine]
7 | < 1000 nM | Nc1nc(Nc2ccc(N3CCN4CCCCCC4C3)c(F)c2)nn1-c1cc2c(nn1)-c1ccccc1CCC2 (centres unmarked) [Compound 73, 1-(6,7-dihydro-5H-benzo[6,7]cyclohepta[1,2-c]pyridazin-3-yl)-N^3-(3-fluoro-4-(decahydropyrazino[1,2-a]azepin-2-yl)phenyl)-1H-1,2,4-triazole-3,5-diamine]
8 | > 20000 nM | Nc1nc(Nc2ccc(N3Cc4ccccc4C3)c(F)c2)nn1-c1cc2c(nn1)-c1ccccc1SCC2 [Compound 123, 1-(6,7-dihydro-5H-benzo[2,3]thiepino[4,5-c]pyridazin-3-yl)-N^3-(3-fluoro-4-(isoindolin-2-yl)phenyl)-1H-1,2,4-triazole-3,5-diamine]

Row | SMILES | IC50
9 | CN1CCC(N2CCN(c3ccc(Nc4nc(N)n(-c5cc6c(nn5)-c5ccccc5CCC6)n4)cc3F)CC2)CC1 [Compound 109, 1-(6,7-dihydro-5H-benzo[6,7]cyclohepta[1,2-c]pyridazin-3-yl)-N^3-(3-fluoro-4-(4-N-methylpiperidin-4-ylpiperazinyl)phenyl)-1H-1,2,4-triazole-3,5-diamine] | < 1000 nM

same assay, conditions: Hela cells, phospho-Akt chemiluminescence normalized to relative cell number; compounds of formula (Ib), Table 2; read-out: IC50

Row | IC50 | SMILES
10 | < 1000 nM | Nc1nc(Nc2ccc(N3CCN(CC4CC4)CC3)c(F)c2)n(-c2cc3c(nn2)-c2ccccc2CCC3)n1 [Compound 244, 1-(6,7-dihydro-5H-benzo[6,7]cyclohepta[1,2-c]pyridazin-3-yl)-N^5-(3-fluoro-4-(4-cyclopropylmethylpiperazin-1-yl)phenyl)-1H-1,2,4-triazole-3,5-diamine]

same assay, conditions: inhibition of Axl activity; Table 1, compounds of formula (Ia); read-out: IC50

Row | IC50 | SMILES
11 | < 1000 nM | Nc1nc(Nc2ccc(/C=C/CN3CCC(N4CCCCC4)CC3)nc2)nn1-c1cc2c(nn1)-c1ccccc1CCC2 [Compound 145, 1-(6,7-dihydro-5H-benzo[6,7]cyclohepta[1,2-c]pyridazin-3-yl)-N^3-(6-(3-(4-(piperidin-1-yl)piperidin-1-yl)-(E)-propenyl)pyridin-3-yl)-1H-1,2,4-triazole-3,5-diamine]
12 | < 1000 nM | Nc1nc(Nc2ccc(C3NCC4CNCC43)c(F)c2)nn1-c1cc2c(nn1)-c1ccccc1CCC2 (centres unmarked) [Compound 137, 1-(6,7-dihydro-5H-benzo[6,7]cyclohepta[1,2-c]pyridazin-3-yl)-N^3-(3-fluoro-4-(octahydropyrrolo[3,4-c]pyrrolyl)phenyl)-1H-1,2,4-triazole-3,5-diamine]
13 | < 1000 nM | CN1CCN(C2CCN(c3ccc(Nc4nc(N)n(-c5cc6c(nn5)-c5ccccc5CCC6)n4)cc3F)CC2)CC1 [Compound 179, 1-(6,7-dihydro-5H-benzo[6,7]cyclohepta[1,2-c]pyridazin-3-yl)-N^3-(3-fluoro-4-(4-(4-methylpiperazin-1-yl)piperidin-1-yl)phenyl)-1H-1,2,4-triazole-3,5-diamine]
14 | < 1000 nM | CN(C)CCNC1CCc2ccc(Nc3nc(N)n(-c4cc5c(nn4)-c4ccccc4CCC5)n3)cc2CC1 (centres unmarked) [Compound 235]
15 | < 1000 nM | Nc1nc(Nc2ccc3c(c2)CCC(O)CC3)nn1-c1cc2c(nn1)-c1ccccc1CCC2 (centres unmarked) [Compound 226, 1-(6,7-dihydro-5H-benzo[6,7]cyclohepta[1,2-c]pyridazin-3-yl)-N^3-(7-hydroxy-6,7,8,9-tetrahydro-5H-benzo[7]annulene-2-yl)-1H-1,2,4-triazole-3,5-diamine]
16 | < 1000 nM | C[C@H]1CN(c2ccc(Nc3nc(N)n(-c4cc5c(nn4)-c4ccccc4CCC5)n3)cn2)CCN1CC1CC1 [Compound 202, 1-(6,7-dihydro-5H-benzo[6,7]cyclohepta[1,2-c]pyridazin-3-yl)-N^3-(2-(3-(S)-methyl-4-cyclopropylmethylpiperazin-1-yl)pyridine-5-yl)-1H-1,2,4-triazole-3,5-diamine]
17 | 1000 to 10000 nM | Nc1nc(Nc2ccc(N3CCC(N4CCCC4)CC3)c(F)c2)nn1-c1cc(-c2ccccc2)c2c(n1)-c1ccccc1CCC2 [Compound 238, 1-(4-phenyl-6,7-dihydro-5H-benzo[6,7]cyclohepta[1,2-b]pyridin-2-yl)-N^3-(3-fluoro-4-(4-pyrrolidin-1-ylpiperidin-1-yl)phenyl)-1H-1,2,4-triazole-3,5-diamine]
